Measured values from patent US5698547A, “Cephalosporin antibiotics” (Microcide Pharmaceuticals, Inc., priority 1995, dated 1997).
“And” between values parts separate entries of the source, which are not always exact repeats. Identical values can stand only once. Counter-ions that a name gives are not always drawn. Like-named read-outs stand apart in the source and are kept apart here.

Experiments:
[1] = system: MRSA strains; settings: in words, reported; cited from earlier work
[2] = system: S. aureus ATCC 25923; assay: MIC by agar dilution, S. aureus ATCC 25923; format: cell-based
Protocol: (§1) The compounds of the invention were evaluated against several β-lactamresistant bacteria strains by determining the minimum inhibitory concentration (MIC, μg/ml) of each compound with respect to each strain. The MIC, the lowest concentration of antibiotic which inhibits growth of the test organism, was determined by the agar dilution method.
(§2) To determine the MIC for bacterial isolates, the test compound was incorporated in a series of two-fold dilutions into liquified Mueller-Hinton agar. Upon solidification, a number of different bacterial strains were spot inoculated with a replicating device onto the agar surface. […] The procedures used in these studies have been standardized by the National Committee for Clinical Laboratory Standards (NCCLS), as per the NCCLS publication entitled METHODS FOR DILUTION ANTIMICROBIAL SUSCEPTIBILITY TESTS (1991), which is incorporated herein by reference.
(§3) Aliquots of antimicrobial agents were prepared in phosphate buffered saline (PBS) at pH 7.2. Tween 20 or DMSO was used as a solubilizing vehicle as needed. Standard methods of vortexing, sonicating and gentle heat were used to facilitate solubilizing the test agent. […]
(§4) Disposable sterile 1 μL loops were used to inoculate test plates, with each isolate in a designated grid on the agar plate. […] Endpoints were assessed as the minimum inhibitory concentration (MIC) of antimicrobial agent.

[3] = system: S. epidermidis ATCC 31432; assay: MIC by agar dilution, S. epidermidis ATCC 31432; format: cell-based
Protocol: as §1, §2, §3, §4

[4] = system: S. aureus Col (Meth^R) (lac^-); assay: MIC by agar dilution, S. aureus Col (Meth^R) (lac^-); format: cell-based; settings: agar dilution, S. aureus Col (Meth^R) (lac^-)
Method in brief: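 Agar dilution per NCCLS (1991): two-fold dilutions from 128 μg/mL down to ≤0.25 μg/mL in Mueller-Hinton agar, each level in duplicate. Spots of about 10^4 cfu of log-phase culture; 16-20 h at 35°-36° C. MIC in μg/ml is the lowest concentration inhibiting growth.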

[5] = system: S. aureus 76 (Meth^R) (lac^+); assay: MIC by agar dilution, S. aureus 76 (Meth^R) (lac^+); format: cell-based
Protocol: as §1, §2
(§5) Aliquots of antimicrobial agents were prepared in phosphate buffered saline (PBS) at pH 7.2. Tween 20 or DMSO was used as a solubilizing vehicle as needed. Standard methods of vortexing, sonicating and gentle heat were used to facilitate solubilizing the test agent. Typically, the concentration of the stock solution was 10× that of the highest drug concentration tested. A 1.28 mg/mL stock solution was used with a subsequent highest working concentration of 128 μg/mL. Serial two-fold dilutions were done through ≤0.25 μg/mL. Each drug level was tested in duplicate. Two-fold drug dilutions were done in sterile 50 mL tubes with a final drug volume of 5 mL. Upon the addition of 45 mL of molten agar, a 10-fold dilution resulted. Two, 25 mL. plates were then poured into 15×150 mm square Petri plates with grids and allowed to harden.
(§6) A control plate with a reference drug, either cefotaxime, vancomycin or imipenem, was used as the positive growth control. Stock concentrations of reference antibiotics were prepared and frozen at -80° C. Upon preparation, the control plates were sealed and stored in the refrigerator for up to 1 week prior to use; however, imipenem control plates had to be prepared just prior to use. All test plates were used within 24 hours of preparation.
(§7) Satisfactory results were obtained where the inoculum contained about 10^4 colony forming units (cfu) ±0.5 logs. Starting with pure cultures of the test isolates on agar plates, a few isolated colonies were transferred to a tube of nutrient broth and allowed to grow 4-6 hours at 35°-36° C. to reach log-phase growth. Dropwise addition of the broth culture to PBS was done to match a 0.5 McFarland turbidity standard equal to 10^8 cfu/mL. This was further diluted ten-fold in PBS to reach a working inoculum concentration of 10^7 cfu/mL. When 1 μL of the working inoculum was applied to the agar surface a concentration of about 10^4 cfu per spot was obtained.
(§8) Disposable sterile 1 μL loops were used to inoculate test plates, with each isolate in a designated grid on the agar plate. An alternate method of inoculation involved the use of a replica plater, a device with 48 steel pins allowing the simultaneous inoculation of multiple isolates. After the spots had dried, the plates were incubated at 35°-36° C. for 16-20 hours. Endpoints were assessed as the minimum inhibitory concentration (MIC) of antimicrobial agent.

[6] = system: S. aureus Col8A (Meth^S) (lac^-); assay: MIC by agar dilution, S. aureus Col8A (Meth^S) (lac^-); format: cell-based; settings: agar dilution; S. aureus Col8A (Meth^S) (lac^-)
Protocol: as §1, §2, §5, §6, §7, §8
The novel agents of this invention are notable for their enhanced activity against S. aureus Col and Enterococci (E. faecium and E. faecalis). The S. aureus Col strain is a high-level PBP2a producer, whereas S. aureus Col 8A, its isogenic partner, lacks PBP2a. […] Thus, the compounds of the present invention are effective against PBP2a-producing bacteria.

[7] = system: S. haemolyticus (Meth^R); assay: MIC by agar dilution, S. haemolyticus (Meth^R); format: cell-based
Protocol: as §1, §2, §5, §6, §7, §8

[8] = system: E. faecium ATCC 35667; assay: MIC by agar dilution, E. faecium ATCC 35667; format: cell-based
Protocol: as §1, §2, §5, §6, §7, §8

[9] = system: E. faecalis ATCC 29212; assay: MIC by agar dilution, E. faecalis ATCC 29212; format: cell-based
Protocol: as §1, §2, §5, §6, §7, §8

[10] = system: E. coli ATCC 25922; assay: MIC by agar dilution, E. coli ATCC 25922; format: cell-based
Protocol: as §1, §2, §5, §6, §7, §8

[11] = system: P. aeruginosa ATCC 27853; assay: MIC by agar dilution, P. aeruginosa ATCC 27853; format: cell-based
Protocol: as §1, §2, §5, §6, §7, §8

[12] = system: methicillin-susceptible S. aureus strain ATCC 13709; assay: murine model for lethal bacteremic peritonitis; format: in vivo, female Swiss-Webster mice; settings: subcutaneous, 72 h
Method in brief: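 Female Swiss-Webster mice challenged IP with an LD100 titer of bacteria in 7% hog gastric mucin; groups of 10 treated SC with twofold drug increments (0.01–512 mg/kg) as two equal doses at challenge and 2 h later. Survival followed for 72 h; PD50 (total mg/kg) calculated by probit method.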

[13] = system: S. aureus strain ATCC 13709; assay: Challenge strain MIC; format: cell-based; settings: Staphylococcus aureus, ATCC13709; S. aureus ATCC 13709; read-out: Challenge str MIC
Protocol: as §1, §2
reported for challenge with methicillin-susceptible S. aureus

C[C@@H](O)[C@H]1C(=O)N2C(C(=O)O)=C(SCCN=CN)C[C@H]12 [imipenem]
activity against MRSA strains [1]: active against a few MRSA strains

(7R)-7-[(Phenylacetyl)amino]-3-(2,3-dihydro-2,2-dimethylbenzofuran-7-yl)-3-cephem-4-carboxylic acid [Cmpd 55]
MIC [2]: < 0.25 µg/mL | MIC [3]: < 0.25 µg/mL | MIC [4]: 4 µg/mL | MIC [5]: 16 µg/mL | MIC [6]: < 0.25 µg/mL | MIC [7]: 16 µg/mL | MIC [8]: 8 µg/mL | MIC [9]: 16 µg/mL | MIC [10]: > 32 µg/mL | MIC [11]: > 32 µg/mL

N=C(N)NCCSCC(=O)N[C@@H]1C(=O)N2C(C(=O)O)=C(Sc3ccccc3CSC(=N)N)CS[C@H]12 [Cmpd 137, (7R)-7-[((2-guanidinoethylthio)acetyl)amino]-3-(2-isothiouroniummethylphenylthio)-3-cephem-4-carboxylate, trifluoroacetic acid salt]
MIC ([4]; Staphylococcus aureus, read-out: MIC): 2 µg/mL | Mortality ([12]; dose 0.0391 mg/kg): 8/10 | Mortality ([12]; dose 0.0781 mg/kg): 9/10 | Mortality ([12]; dose 0.1562 mg/kg, trifluoroacetic acid salt): 7/10 and 9/10 | Mortality ([12]; dose 0.3125 mg/kg, trifluoroacetic acid salt): 5/10 and 8/10 | Mortality ([12]; dose 0.625 mg/kg, trifluoroacetic acid salt): 6/10 and 1/10 | Mortality ([12]; dose 1.25 mg/kg): 0/10 | Mortality ([12]; dose 2.5 mg/kg): 0/10 | ED50 ([12]; two equal doses, S. aureus ATCC 13709 IP challenge, trifluoroacetic acid salt, 4320 min): 0.38 mg/kg | MIC [13]: 0.125 µg/mL
